Test results taken from patent US20020010166A1, “CRYSTALLINE PROGESTAGENS” (priority 1997, published 2002).
Several values for one entry are separate records, joined by “and”; a condition that tells them apart may be missing. Equal values may be shown once.

What was measured:
[1] = Differential Scanning Calorimetry (DSC) of crystalline forms of Org 30659; format: physicochemical; details: determined by DSC, heating rate 5.0° C./min, from the melting peak
Protocol: Differential Scanning Calorimetry (DSC)
DSC curves were recorded using a Seiko DSC-120 instrument. Closed aluminium pans having a volume of 5 μl were used in combination with a nitrogen flow of 50 ml/min. The heating rate was 5.0° C./min.
DSC curves of crystalline forms of Org 30659. The horizontal axis represents the temperature in ° C. (heating), the vertical axis represents heat in μW or mW.

[2] = Relative stability of crystalline forms on heating / in boiling water; format: physicochemical; details: at temperatures below 155° C., including subjection to boiling water

Row | Structure (SMILES) | thermodynamic stability, enthalpy ΔH [1] | relative stability of the crystalline form [2] | thermodynamic stability, enthalpy ΔH ([1]; listed as form C)
1 | C#C[C@]1(O)C=C[C@H]2[C@@H]3CCC4=CC(=O)CC[C@@H]4[C@H]3C(=C)C[C@@]21C [form (A), (17α)-17-hydroxy-11-methylene-19-norpregna-4,15-diene-20-yn-3-one] | 84.3 mJ/mg and 84 mJ/mg | the most stable one | –
2 | C#C[C@]1(O)C=C[C@H]2[C@@H]3CCC4=CC(=O)CC[C@@H]4[C@H]3C(=C)C[C@@]21C [form (B), (17α)-17-hydroxy-11-methylene-19-norpregna-4,15-diene-20-yn-3-one] | 70 mJ/mg and 70.4 mJ/mg | – | –
3 | C#C[C@]1(O)C=C[C@H]2[C@@H]3CCC4=CC(=O)CC[C@@H]4[C@H]3C(=C)C[C@@]21C [form (C), (17α)-17-hydroxy-11-methylene-19-norpregna-4,15-diene-20-yn-3-one] | 71.9 mJ/mg | – | 71.9 mJ/mg
